Data taken from patent US4216324A, “1-Difluoromethyl-6,7-methylenedioxy-1,4-dihyd ro-4-oxo-3-quinolinecarboxylic acid” (E. I. Du Pont de Nemours and Company, priority 1978, dated 1980).
Values after ≈ are worked out from the molar mass of the structure shown. Where two headings read alike, the source gives them in different places.

Experiments:
[1] = in vivo; details: mouse, in vivo, po; for TD50: doses given in mg./kg
Protocol: 17- to 24-hour fasted female white mice, 16-20 g. each, or rats, 70-90 g. each were dosed orally with test drug (or standard) at 0, 4, 12, 36, 108 or 324 mg./kg.
Ataxia--The mouse or rat was placed upright on the bench top facing away from the observer. Motor incoordination manifested by abnormal gait or lack of precision during purposive movements constituted ataxia.
Vertical Bar--The mouse or rat was swung by the tail with head pointing down to a 0.5" diameter (1" diameter for rats), 30.5 cm long vertical rod covered with adhesive tape. Inability to grip the rod with the front paws, sliding or failure to move after being prodded constituted vertical bar loss.
Body Temperature--The rectal temperatures of the mice and rats were taken using a KC-1 thermocouple probe.
Excitement and Irritability--Increased spontaneous motor activity, running and jumping prior to handling were recorded as excitement. Upon handling, jumping, jerking, biting and squeaking were recorded as irritability.
Anorexia--At the end of the 0.5 hour testing period, each mouse was transferred to an individual, clear, Lucite® compartment (13.3 cm×12.7 cm×12.7 cm) with a 0.64 cm×0.64 cm wire mesh floor. Inside each compartment there was a section of a black Lucite® bar [13 cm×1.2 cm×1.2 cm) with ten spot depressions (0.8 cm diameter) each containing 0.05 ml. of 50% sweetened condensed milk. 30 Minutes later the number of milk spots consumed was counted. 5 Mice per drug dose can drink a maximum of 50 spots (2.5 ml. of milk). 15 or fewer spots consumed by 5 mice constituted anorexia.

[2] = General pharmacology screen in rats; details: rat, in vivo, po; for TD50: doses given in mg./kg
[3] = tested on: Staph. aureus; experiment: In vitro minimum inhibitory concentration (MIC), tube dilution test; assay type: cell-based; details: Staphylococcus aureus; Staph. aureus (08F); brain-heart infusion broth, 20hour incubation at 37° C.; read-out: Minimal Inhibitory Test Conens. (MIC)
Protocol: (§1) A. In vitro: mimimum inhibitory concentration (MIC)
(§2) The compound was tested in a standard bacteriological tube dilution test for MIC for a variety of bacteria. Stock cultures of the bacteria listed in Table 1 were grown in bacterial culture media at 37° C. overnight and diluted in culture tubes to a previously determined concentration proper for the test. The compound was added to result in final concentrations of 10, 2, 0.4 and 0.08 μg/ml. These were incubated for 18 hours at 37° C. and then observed to determine if growth of bacteria had occurred. The lowest concentration of the compound that inhibited bacterial growth in the MIC.
(§3) *brain-heart infusion broth, 20hour incubation at 37° C.

[4] = tested on: Sal. choleraesuis; experiment: as above; assay type: cell-based; details: Salmonella enterica, 20 h, read-out: Minimal Inhibitory Test Conens. (MIC)
Protocol: as §1, §2, §3

[5] = tested on: Bac. subtilis; experiment: as above; assay type: cell-based; details: Bacillus subtilis; Bac. subtilis (07A); brain-heart infusion broth, 20hour incubation at 37° C.; read-out: Minimal Inhibitory Test Conens. (MIC)
Protocol: as §1, §2, §3

[6] = tested on: Ser. marcescens; experiment: as above; assay type: cell-based; details: Serratia marcescens; Ser. marcescens (22); brain-heart infusion broth, 20hour incubation at 37° C.; read-out: Minimal Inhibitory Test Conens. (MIC)
Protocol: as §1, §2, §3

[7] = tested on: Kleb. aerobacter; experiment: as above; assay type: cell-based; details: Kleb. aerobacter (20F); brain-heart infusion broth, 20hour incubation at 37° C.; read-out: Minimal Inhibitory Test Conens. (MIC)
Protocol: as §1, §2, §3

[8] = tested on: Proteus vulgaris; experiment: as above; assay type: cell-based; details: Proteus vulgaris (14P); brain-heart infusion broth, 20hour incubation at 37° C.; read-out: Minimal Inhibitory Test Conens. (MIC)
Protocol: as §1, §2, §3

[9] = tested on: Proteus sp.; experiment: as above; assay type: cell-based; details: brain-heart infusion broth, 20hour incubation at 37° C., read-out: Minimal Inhibitory Test Conens. (MIC)
Protocol: as §1, §2, §3

[10] = tested on: Sal. typhimurium; experiment: as above; assay type: cell-based; details: Salmonella enterica, 20 h, brain-heart infusion broth, 20hour incubation at 37° C., read-out: Minimal Inhibitory Test Conens. (MIC)
Protocol: as §1, §2, §3

[11] = tested on: Sal. gallinarum; experiment: as above; assay type: cell-based; details: Salmonella enterica, 20 h, brain-heart infusion broth, 20hour incubation at 37° C., read-out: Minimal Inhibitory Test Conens. (MIC)
Protocol: as §1, §2, §3

[12] = tested on: Aero. cloacae; experiment: as above; assay type: cell-based; details: Enterobacter cloacae; Aero. cloacae (39A); brain-heart infusion broth, 20hour incubation at 37° C.; read-out: Minimal Inhibitory Test Conens. (MIC)
Protocol: as §1, §2, §3

[13] = tested on: Shiq. dysenteriae; experiment: as above; assay type: cell-based; details: 20 h, read-out: Minimal Inhibitory Test Conens. (MIC)
Protocol: as §1, §2, §3

[14] = tested on: E. coli; experiment: as above; assay type: cell-based; details: Escherichia coli, 20 h, brain-heart infusion broth, 20hour incubation at 37° C., read-out: Minimal Inhibitory Test Conens. (MIC)
Protocol: as §1, §2, §3

[15] = tested on: Sal. typhi; experiment: as above; assay type: cell-based; details: Salmonella enterica, TYPHI, 20 h, brain-heart infusion broth, 20hour incubation at 37° C.
Protocol: as §1, §2, §3

[16] = tested on: Strep. pyogenes; experiment: as above; assay type: cell-based; details: Streptococcus pyogenes; Strep. pyogenes (10V); brain-heart infusion broth, 20hour incubation at 37° C.; read-out: Minimal Inhibitory Test Conens. (MIC)
Protocol: as §1, §2, §3

O=C(O)c1cn(C(F)F)c2cc3c(cc2c1=O)OCO3 [DFMQ, 1-difluoromethyl-6,7-methylenedioxy-1,4-dihydro-4-oxo-3-quinolinecarboxylic acid]
LD50 at 24 h [1]: > 450 mg/kg | TD50 ([1]; ED50 Anoroxia, 15 or fewer milk spots consumed by 5 mice): > 450 mg/kg | TD50 ([1]; ED50 Ataxia): > 450 mg/kg | TD50 ([1]; ED50 Excitation): > 450 mg/kg | TD50 ([1]; ED50 Hypertherm., rectal temperature): > 450 mg/kg | TD50 ([1]; ED50 Hypotherm., rectal temperature): > 450 mg/kg | TD50 ([1]; ED50 Irritability): > 450 mg/kg | TD50 ([1]; ED50 Vert. Bar, vertical bar loss): > 450 mg/kg | LD50 at 24 h [2]: > 324 mg/kg | TD50 ([2]; read-out: ED50 Ataxia): > 324 mg/kg | TD50 ([2]; read-out: ED50 Excitation): > 324 mg/kg | TD50 ([2]; read-out: ED50 Irritability): > 324 mg/kg | TD50 ([2]; rectal temperature, read-out: ED50 Hypertherm.): > 324 mg/kg | TD50 ([2]; rectal temperature, read-out: ED50 Hypotherm.): > 324 mg/kg | TD50 ([2]; vertical bar loss, read-out: ED50 Vert. Bar): > 324 mg/kg | MIC [3]: 0.4 µg/mL (≈ 1.41 µM) | MIC [4]: < 0.08 µg/mL | MIC [5]: < 0.08 µg/mL | MIC [6]: 0.4 µg/mL (≈ 1.41 µM) | MIC [7]: 2 µg/mL (≈ 7.06 µM) | MIC [8]: 2 µg/mL (≈ 7.06 µM) | MIC [9]: < 0.08 µg/mL | MIC ([10]; Sal. typhimurium (03A)): 0.4 µg/mL (≈ 1.41 µM) | MIC ([10]; Sal. typhimurium (03C)): 0.4 µg/mL (≈ 1.41 µM) | MIC ([10]; Sal. typhimurium (03K)): < 0.08 µg/mL | MIC ([11]; Sal. gallinarum (04C)): 2 µg/mL (≈ 7.06 µM) | MIC ([11]; Sal. gallinarum (04D)): 0.4 µg/mL (≈ 1.41 µM) | MIC [12]: < 0.08 µg/mL | MIC [13]: 0.4 µg/mL (≈ 1.41 µM) | MIC ([14]; E. coli (06-2B)): 2 µg/mL (≈ 7.06 µM) | MIC ([14]; E. coli (06-2F)): 0.4 µg/mL (≈ 1.41 µM) | MIC ([14]; E. coli (06-2L)): 10 µg/mL (≈ 35.3 µM) | MIC ([14]; E. coli (06-2M)): < 0.08 µg/mL | MIC ([14]; E. coli (06C)): 2 µg/mL (≈ 7.06 µM) | MIC ([14]; E. coli (06I)): 10 µg/mL (≈ 35.3 µM) | MIC ([14]; E. coli (06J)): 0.4 µg/mL (≈ 1.41 µM) | MIC ([14]; E. coli (06K)): 0.4 µg/mL (≈ 1.41 µM) | MIC ([14]; E. coli (06L)): 0.4 µg/mL (≈ 1.41 µM) | MIC ([14]; E. coli (06M)): 0.4 µg/mL (≈ 1.41 µM) | MIC ([14]; E. coli (06S)): 0.4 µg/mL (≈ 1.41 µM) | MIC ([14]; E. coli (06V)): 0.4 µg/mL (≈ 1.41 µM) | MIC ([14]; E. coli (06X)): 2 µg/mL (≈ 7.06 µM) | MIC ([14]; E.coli (06-2D)): 2 µg/mL (≈ 7.06 µM) | MIC ([15]; read-out: Minimal Inhibitory Test Conens. (MIC), Sal. typhi (02A)): 2 µg/mL (≈ 7.06 µM) | MIC ([15]; read-out: Minimal Inhibitory Test Conens. (MIC), Sal. typhi (02B)): 0.4 µg/mL (≈ 1.41 µM) | MIC [16]: < 0.08 µg/mL
